Literature values as cited in patent US20160000732A1, “ORAL PHARMACEUTICAL COMPOSITIONS OF OSPEMIFENE” (CADILA HEALTHCARE LIMITED, priority 2014, published 2016).

Assays:
[1] = experimental models and human volunteers; WO 1996/07402, WO 1997/32574
[2] = classical hormonal tests, Kangas 1990

Compound: OCCOc1ccc(/C(=C(/CCCl)c2ccccc2)c2ccccc2)cc1 [Ospemifene, 2-[4-(4-chloro-1,2-diphenylbut-1-enyl)phenoxy]ethanol]
- total and LDL cholesterol levels [1]: decreases
- estrogenic and antiestrogenic effects [2]: relatively weak
